Assay results taken from US10982293B2, “Methods for improving plant resistance to soybean cyst nematode and compositions thereof” (Monsanto Technology LLC, priority 2014, dated 2021).

Tests used:
Format in all cases: in vivo, Heterodera glycines
SCN [1] = experiment: Greenhouse trials: susceptible soybean line challenged with SCN with and without the compound (all plants with Acceleron); conditions: presence vs absence of the compound, all plants treated with ACCELERON
Method: Untreated seed or seed treated only with a colorant were used as standard controls. Single soybean seed were planted in 3''×3'' pots filled with field soil mixed with sand and steam sterilized. Ten days after germination seedlings were inoculated with 2000-3000 SCN eggs isolated from cultures maintained on the appropriate soybean germplasm to maintain designated race. After inoculation, soil temperatures were maintained at 28° C. with 16-hour day-length for 28-30 days. On the last day of the incubation period, individual plants were uprooted. Cysts from each plant were collected by blasting the roots with pressurized water and washing the soil while trapping the released cysts on sieves. The collected cysts from individual plants were transferred to a counting dish. The total number of cysts from individual plants was counted under a dissecting microscope. Data is reported as the number of cysts collected from an individual pot and represent the mean of 6-8 replications. […] All plants were treated with […]® (Monsanto Company, St. Louis, Mo., USA) to reduce fungal disease.

[2] = tested on: race 1 soybean cyst nematodes; experiment: Field tests: yield of treated and untreated soybean lines in race 1 SCN fields; conditions: for yield, treated vs untreated: race 1 SCN
Method: Prior to planting, seeds were treated with chemistry according to standard industry protocols. Six different untreated and treated lines were planted in eight plots. The six lines were selected based on resistance reaction to race 1 and race 3 SCN. […] The levels of resistance were determined essentially as described by Schmitt, D. P. and Shannon, G., Crop Sci., 32:275-277 (1992), according to Table 4. Soil cores were collected at emergence near the root zone of the plant. Multiple soil samples were taken, combined, and crushed into small evenly-sized particles. A sample aliquot was combined with water allowed to sit, then stirred. The sample was then poured into a funnel and processed in a soil elutriator. The sample was counted, with a final number being given as eggs per 100 cc of soil. Based on the number of eggs per 100 cc of soil, the field was classified as low to high pressure, where about 0 to about 180 eggs per 100 cc of soil was considered to be low pressure, about 180 eggs to about 1100 eggs per 100 cc of soil was considered to be medium pressure, and greater than about 1100 eggs per 100 cc of soil was considered to be high pressure. Lines were planted in four medium and four high pressure fields containing race 1 soybean cyst nematodes. The medium pressure fields contained 536 eggs per 100 cc of soil while the high pressure fields contained 1645 eggs per 100 cc of soil. Yield was determined at harvest. The lines derived from Peking germplasm provided protection against race 1 SCN while the lines derived from PI88788 germplasm provided protection against race 3 SCN.

SCN [3] = experiment: Field trials (43): yield of treated PI88788-derived soybean lines under moderate to high nematode pressure; conditions: seed treatment 0.50 mg AI/seed with Fungicide + Insecticide (Base 2); adjusted to 13% moisture
Description: Eleven different untreated and treated lines were planted in a total of 43 separate field trials with a single variety per location. The eleven lines were selected based on their resistance reactions to race 3 SCN. The eleven lines were developed from PI88788 source germplasm and display either moderate resistance or resistance to race 3 SCN. 3-Phenyl-5-(thiophen-2-yl)-1,2,4-oxadiazole was combined with commercial fungicides and insecticides in a tank slurry mix with colorant, polymer, and water at the recommended rates and allowed to mix thoroughly. Using a Gustafson continuous batch seed coater the seed batch was loaded, the treatment slurry was injected and the mixture was allowed to tumble for 35-40 seconds before being ejected into a paper storage bag. […] Sub-samples (˜ 1 pint of soil) were taken from each composite sample and placed in a plastic bag, with appropriate handling to ensure viability of nematodes, and sent to a lab for nematode quantification. […] Quantitative in-season nematode sampling using root and soil samples was conducted eight weeks after planting for trials. […] Samples were sent to a lab for nematode quantification. […] The data were calculated to represent bushels per acre by taking the grain weight over the square footage of each plot and adjusting to 13% moisture.

race 2 SCN = experiment: Greenhouse study: SCN cysts on roots of soybean grown from treated seed, race 2 SCN challenge; conditions: seed treatment, 2000-3000 SCN eggs, cysts counted after 28-30 days, mean of 6-8 replications, FIG. 3
Method: Various soybean lines were treated with the compound 3-phenyl-5-(thiophen-2-yl)-1,2,4-oxadiazole following standard industry protocols. The structure of 3-phenyl-5-(thiophen-2-yl)-1,2,4-oxadiazole is:
Untreated seed or seed treated only with a colorant were used as standard controls. Single soybean seed were planted in 3″×3″ pots filled with field soil mixed with sand and steam sterilized. Ten days after germination seedlings were inoculated with 2000-3000 SCN eggs isolated from cultures maintained on the appropriate soybean germplasm to maintain designated race. After inoculation, soil temperatures were maintained at 28° C. with 16-hour day-length for 28-30 days. On the last day of the incubation period, individual plants were uprooted. Cysts from each plant were collected by blasting the roots with pressurized water and washing the soil while trapping the released cysts on sieves. The collected cysts from individual plants were transferred to a counting dish. The total number of cysts from individual plants was counted under a dissecting microscope. Data is reported as the number of cysts collected from an individual pot and represent the mean of 6-8 replications.
All plants were treated with ACCELERON® (Monsanto Company, St. Louis, Mo., USA) to reduce fungal disease.

Structure (SMILES): c1ccc(-c2noc(-c3cccs3)n2)cc1 [3-phenyl-5-(thiophen-2-yl)-1,2,4-oxadiazole]
- SCN cyst counts (SCN [1]): lower SCN cyst counts
- yield, treated vs untreated ([2]; high pressure field, 1645 eggs per 100 cc soil, Peking-moderately resistant (Line 2) and PI88788-moderately resistant (Line 5), FIG. 6): unexpected statistically higher yield
- yield, treated vs untreated ([2]; high pressure field, 1645 eggs per 100 cc soil, Peking-resistant (Line 3), PI88788-sensitive (Line 4), PI88788-resistant (Line 6)): no statistical difference
- yield, treated vs untreated ([2]; high pressure field, 1645 eggs per 100 cc soil, Peking-sensitive line (Line 1)): statistically higher yield than untreated
- yield advantage compared to untreated ([2]; high pressure field, average of the two moderately resistant lines): 5.8 bushel per acre
- yield in field tests (legend of FIG. 6) ([2]; high race 1 SCN pressure, about 1645 SCN eggs/100 cc soil): increase in yield
- yield in field tests (legend of FIG. 5) ([2]; low race 1 SCN pressure, about 536 SCN eggs/100 cc soil): increase in yield
- yield, treated vs untreated ([2]; medium pressure field, 536 eggs per 100 cc soil, Peking or PI88788 sensitive, moderately resistant and resistant lines, FIG. 5): No statistical difference in yield
- Average Yield (SCN [3]): 55.7 BU/A
- resistance to race 2 SCN (number of SCN cysts on soybean roots) (race 2 SCN): enhances resistance to race 2 SCN
